Like-named read-outs stand apart in the source and are kept apart here.
Legend:
[1] = system: HCV genotype 1b (Con1) replicon in HUH-7 cells; test: HCV replicon luciferase reporter assay, genotype 1b; assay type: cell-based; details: Hepatitis C virus, 72 h, genotype 1b replicon, 3 days incubation
From the text: An HCV replicon whole cell system was established as described by Lohmann V, Korner F, Koch J, Herian U, Theilmann L, Bartenschlager R., Science 285(5424):110-3 (1999) and modified to introduce a luciferase reporter, as first described by Krieger et al (Krieger N, Lohmann V, and Bartenschlager R, J. Virol. 75(10):4614-4624 (2001)). CDNA encoding a humanized form of the Renilla luciferase gene and a linker sequence fused directly to the 3′-end of the luciferase gene were introduced into the replicon construct using an Asc1 restriction site located in core, directly upstream of the neomycin marker gene. The adaptive mutation at position 1179 (serine to isoleucine) was also introduced (Blight K J, Kolykhalov, A A, Rice, C M, Science 290(5498):1972-1974). A stable cell line constitutively expressing this HCV replicon construct was generated by first linearizing plasmid DNAs with ScaI. RNA transcripts were synthesized in vitro using the T7 MegaScript transcription kit (Ambion, Austin, Tex.) according to manufacturer's directions. In vitro transcripts of the cDNA were transfected into the human hepatoma cell line, HUH-7. […] Resulting cell lines were characterized for positive and negative strand RNA production and protein production over time. […]
(§1) HCV replicon luciferase assays were developed to monitor the inhibitory effects of compounds described in the disclosure on HCV genotypes 1a and 1b viral replication. HUH-7 cells, constitutively expressing the HCV replicon, were grown in Dulbecco's Modified Eagle Media (DMEM) (Gibco-BRL) containing 10% Fetal calf serum (FCS) (Sigma) and 1 mg/mL G418 (Gibco-BRL). Compounds were serially diluted 3 folds in DMSO for a twenty-point titration and subsequently transferred to sterile 384-well tissue-culture treated plates (Corning cat #3571). The plates were then seeded with 50 μL of cells at a density of 3.0×10^3 cells/well in DMEM containing 4% FCS (final DMSO concentration at 0.5%). After 3 days incubation at 37° C., cells were analyzed for Renilla Luciferase activity using the EnduRen as substrate (Promega cat #E6485). The EnduRen substrate was diluted in DMEM and then added to the plates to a final concentration of 7.5 μM. The plates were incubated for 2 hrs at 37° C. and then read immediately for 30 seconds with Viewlux Imager (PerkinElmer) using a luminescence program. To assess cytotoxicity of compounds, CC50 values were generated by multiplexing the EnduRen-containing plates with Cell Titer-Blue (Promega, cat # G8082). Cell-Titer Blue (3 μL) was added to each well and incubated for 8 hrs at 37° C. The fluorescence signal from each well was read, with an excitation wavelength at 525/10 nm and an emission wavelength of 598/10 nm, using the Viewlux Imager.
(§2) The EC50 values for compounds were calculated by using a four-parameter logistic equation: y=A+((B−A)/(1+((C/x)^D))), where A and B denotes minimal and maximal % inhibition, respectively, C is the EC50, D is the hill slope and x represents compound concentration.

[2] = system: HCV genotype 1a (H77 strain) replicon in HUH-7 cells; test: HCV replicon luciferase reporter assay, genotype 1a; assay type: cell-based; details: Hepatitis C virus, 72 h, genotype 1a replicon, 3 days incubation
From the text: An HCV replicon whole cell system was established as described by Lohmann V, Korner F, Koch J, Herian U, Theilmann L, Bartenschlager R., Science 285(5424):110-3 (1999) and modified to introduce a luciferase reporter, as first described by Krieger et al (Krieger N, Lohmann V, and Bartenschlager R, J. Virol. 75(10):4614-4624 (2001)). CDNA encoding a humanized form of the Renilla luciferase gene and a linker sequence fused directly to the 3′-end of the luciferase gene were introduced into the replicon construct using an Asc1 restriction site located in core, directly upstream of the neomycin marker gene. The adaptive mutation at position 1179 (serine to isoleucine) was also introduced (Blight K J, Kolykhalov, A A, Rice, C M, Science 290(5498):1972-1974). A stable cell line constitutively expressing this HCV replicon construct was generated by first linearizing plasmid DNAs with ScaI. RNA transcripts were synthesized in vitro using the T7 MegaScript transcription kit (Ambion, Austin, Tex.) according to manufacturer's directions. In vitro transcripts of the cDNA were transfected into the human hepatoma cell line, HUH-7. […] Resulting cell lines were characterized for positive and negative strand RNA production and protein production over time.
A stable HCV replicon luciferase reporter cell line representing the genotype 1a H77 strain (Yanagi M, Purcell R H, Emerson S U, et al. Transcripts from a single full-length cDNA clone of hepatitis C virus are infectious when directly transfected into the liver of a chimpanzee. Proc Natl Acad Sci USA 1997; 94(16):8738-8743) was generated as described previously for the genotype 1b (Con1) replicon luciferase cell line. The replicon construct was modified by introducing mutations were introduced into the genes encoding the NS3 helicase domain (proline replaced by leucine at position 1496) and NS5A (serine to isoleucine at position 2204) to improve replication in cell culture.
as §1, §2

COC[C@@H]1CCCC/C=C\[C@@H]2C[C@@]2(C(=O)NS(=O)(=O)C2(C)CC2)NC(=O)[C@@H]2C[C@@H](Oc3ncc(OC)c4ccccc34)CN2C(=O)[C@H]1NC(=O)OC(C)(C)C [Compound 1007, tert-butyl ((2R,6S,7R,13aS,14aR,16aS,Z)-2-((4-methoxyisoquinolin-1-yl)oxy)-7-(methoxymethyl)-14a-(((1-methylcyclopropyl)sulfonyl)carbamoyl)-5,16-dioxo-1,2,3,5,6,7,8,9,10,11,13a,14,14a,15,16,16a-hexadecahydrocyclopropa[e]pyrrolo[1,2-a][1,4]diazacyclopentadecin-6-yl)carbamate]
EC50 ([1]; read-out: LE_1b (EC50, range)): 0.51 to 1 nM | EC50 ([2]; read-out: LE_1a (EC50, range)): 1.01 to 5 nM

COC[C@@H]1C[C@H](C)CC/C=C\[C@@H]2C[C@@]2(C(=O)NS(=O)(=O)C2CC2)NC(=O)[C@@H]2C[C@@H](Oc3ncc(OC)c4ccccc34)CN2C(=O)[C@H]1NC(=O)OC(C)(C)C [Compound 1003, tert-butyl ((2R,6S,7R,9R,13aS,14aR,16aS,Z)-14a-((cyclopropylsulfonyl)carbamoyl)-2-((4-methoxyisoquinolin-1-yl)oxy)-7-(methoxymethyl)-9-methyl-5,16-dioxo-1,2,3,5,6,7,8,9,10,11,13a,14,14a,15,16,16a-hexadecahydrocyclopropa[e]pyrrolo[1,2-a][1,4]diazacyclopentadecin-6-yl)carbamate]
EC50 ([1]; read-out: LE_1b (EC50, range)): 0.1 to 0.5 nM | EC50 ([2]; read-out: LE_1a (EC50, range)): 0.51 to 1 nM

COC[C@@H]1C[C@@H](C)CC/C=C\[C@@H]2C[C@@]2(C(=O)NS(=O)(=O)C2CC2)NC(=O)[C@@H]2C[C@@H](Oc3nccc4cc(OC)ccc34)CN2C(=O)[C@H]1NC(=O)OC(C)(C)C [Compound 1008, tert-butyl ((2R,6S,7R,9S,13aS,14aR,16aS,Z)-14a-((cyclopropylsulfonyl)carbamoyl)-2-((6-methoxyisoquinolin-1-yl)oxy)-7-(methoxymethyl)-9-methyl-5,16-dioxo-1,2,3,5,6,7,8,9,10,11,13a,14,14a,15,16,16a-hexadecahydrocyclopropa[e]pyrrolo[1,2-a][1,4]diazacyclopentadecin-6-yl)carbamate]
EC50 ([1]; read-out: LE_1b (EC50, range)): 1.01 to 5 nM | EC50 ([2]; read-out: LE_1a (EC50, range)): 1.01 to 5 nM

COC[C@@H]1C[C@@H](C)CC/C=C\[C@@H]2C[C@@]2(C(=O)NS(=O)(=O)C2CC2)NC(=O)[C@@H]2C[C@@H](Oc3ncc(OC)c4ccccc34)CN2C(=O)[C@H]1NC(=O)OC(C)(C)C(F)(F)F [Compound 1013, 1,1,1-trifluoro-2-methylpropan-2-yl ((2R,6S,7R,9S,13aS,14aR,16aS,Z)-14a-((cyclopropylsulfonyl)carbamoyl)-2-((4-methoxyisoquinolin-1-yl)oxy)-7-(methoxymethyl)-9-methyl-5,16-dioxo-1,2,3,5,6,7,8,9,10,11,13a,14,14a,15,16,16a-hexadecahydrocyclopropa[e]pyrrolo[1,2-a][1,4]diazacyclopentadecin-6-yl)carbamate]
EC50 ([1]; read-out: LE_1b (EC50, range)): 1.01 to 5 nM | EC50 ([2]; read-out: LE_1a (EC50, range)): 1.01 to 5 nM

COC[C@@H]1C[C@@H](C)CC/C=C\[C@@H]2C[C@@]2(C(=O)NS(=O)(=O)C2(CF)CC2)NC(=O)[C@@H]2C[C@@H](Oc3nc4cc(OC)ccc4nc3C(F)(F)F)CN2C(=O)[C@H]1NC(=O)OC(C)(C)C(F)(F)F [Compound 1038, 1,1,1-trifluoro-2-methylpropan-2-yl ((2R,6S,7R,9S,13aS,14aR,16aS,Z)-14a-(((1-(fluoromethyl)cyclopropyl)sulfonyl)carbamoyl)-2-((7-methoxy-3-(trifluoromethyl)quinoxalin-2-yl)oxy)-7-(methoxymethyl)-9-methyl-5,16-dioxo-1,2,3,5,6,7,8,9,10,11,13a,14,14a,15,16,16a-hexadecahydrocyclopropa[e]pyrrolo[1,2-a][1,4]diazacyclopentadecin-6-yl)carbamate]
EC50 ([1]; read-out: LE_1b (EC50)): 14.7 nM | EC50 ([1]; read-out: LE_1b (EC50, range)): 5.01 to 35 nM | EC50 ([2]; read-out: LE_1a (EC50)): 35 nM | EC50 ([2]; read-out: LE_1a (EC50, range)): 35 to 620 nM

COC[C@@H]1CCCC/C=C\[C@@H]2C[C@@]2(C(=O)NS(=O)(=O)C2CC2)NC(=O)[C@@H]2C[C@@H](Oc3nccc4cc(OC)c(F)cc34)CN2C(=O)[C@H]1NC(=O)OC(C)(C)C(F)(F)F [Compound 1023]
EC50 ([1]; read-out: LE_1b (EC50, range)): 0.1 to 0.5 nM | EC50 ([2]; read-out: LE_1a (EC50, range)): 1.01 to 5 nM

CCOc1ccc2nc(C(F)(F)F)c(O[C@@H]3C[C@H]4C(=O)N[C@]5(C(=O)NS(=O)(=O)C6(C)CC6)C[C@H]5/C=C\CC[C@@H](C)C[C@@H](COC)[C@H](NC(=O)OC(C)(C)C)C(=O)N4C3)nc2c1 [Compound 1050, tert-butyl ((2R,6S,7R,9R,13aS,14aR,16aS,Z)-2-((7-ethoxy-3-(trifluoromethyl)quinoxalin-2-yl)oxy)-7-(methoxymethyl)-9-methyl-14a-(((1-methylcyclopropyl)sulfonyl)carbamoyl)-5,16-dioxo-1,2,3,5,6,7,8,9,10,11,13a,14,14a,15,16,16a-hexadecahydrocyclopropa[e]pyrrolo[1,2-a][1,4]diazacyclopentadecin-6-yl)carbamate]
EC50 ([1]; read-out: LE_1b (EC50, range)): 0.1 to 0.5 nM

CCOc1cnc(O[C@@H]2C[C@H]3C(=O)N[C@]4(C(=O)NS(=O)(=O)C5(C)CC5)C[C@H]4/C=C\CC[C@H](C)C[C@@H](COC)[C@H](NC(=O)OC(C)(C)C(F)(F)F)C(=O)N3C2)c2ccc(OC)cc12 [Compound 1065, 1,1,1-trifluoro-2-methylpropan-2-yl ((2R,6S,7R,9S,13aS,14aR,16aS,Z)-2-((4-ethoxy-6-methoxyisoquinolin-1-yl)oxy)-7-(methoxymethyl)-9-methyl-14a-(((1-methylcyclopropyl)sulfonyl)carbamoyl)-5,16-dioxo-1,2,3,5,6,7,8,9,10,11,13a,14,14a,15,16,16a-hexadecahydrocyclopropa[e]pyrrolo[1,2-a][1,4]diazacyclopentadecin-6-yl)carbamate]
EC50 ([1]; read-out: LE_1b (EC50, range)): 0.1 to 0.5 nM

CCOc1ccc2nc(C(F)(F)F)c(O[C@@H]3C[C@H]4C(=O)N[C@]5(C(=O)NS(=O)(=O)C6(C)CC6)C[C@H]5/C=C\CC[C@H](C)C[C@@H](COC)[C@H](NC(=O)OC(C)(C)C(C)(F)F)C(=O)N4C3)nc2c1 [Compound 1051, 3,3-difluoro-2-methylbutan-2-yl ((2R,6S,7R,9S,13aS,14aR,16aS,Z)-2-((7-ethoxy-3-(trifluoromethyl)quinoxalin-2-yl)oxy)-7-(methoxymethyl)-9-methyl-14a-(((1-methylcyclopropyl)sulfonyl)carbamoyl)-5,16-dioxo-1,2,3,5,6,7,8,9,10,11,13a,14,14a,15,16,16a-hexadecahydrocyclopropa[e]pyrrolo[1,2-a][1,4]diazacyclopentadecin-6-yl)carbamate]
EC50 ([1]; read-out: LE_1b (EC50, range)): 1.01 to 5 nM

From patent publication US9580463B2 (BRISTOL-MYERS SQUIBB COMPANY, priority 2013, dated 2017)
